The source of these data is ChEMBL document CHEMBL1152906, “Synthesis and evaluation of carbamate prodrugs of SQ109 as antituberculosis agents” (Bioorg Med Chem Lett, 2009).

Several values for one entry are separate records, joined by “and”; a condition that tells them apart may be missing. Identical values can stand only once.

The nature of data set [1]: Oral bioavailability in rat. It is filed as ADME, organism-based. The conditions noted are these: in vivo.
The nature of data set [2]: Oral bioavailability in dog. In kind it is ADME, organism-based, Canis lupus familiaris. The following applies: in vivo.
The nature of data set [3]: Cmax in rat at 1.5 mg/kg, iv. It is filed as ADME, organism-based. The following applies: in vivo. Also on record: dose 1.5 mg/kg, route intravenous.
Data set [4] can be described thus: Half life in rat at 1.5 mg/kg, iv. In kind it is ADME, organism-based. Set-up: dose 1.5 mg/kg, route intravenous. The conditions noted are these: in vivo.
A short description of data set [5]: Clearance in rat at 1.5 mg/kg, iv. The following applies: in vivo. Set-up: dose 1.5 mg/kg, route intravenous. It is filed as ADME, organism-based.
A short description of data set [6]: AUC(0 to 24 hrs) in rat at 1.5 mg/kg, iv. It is filed as ADME, organism-based. Set-up: time < 24 hr, dose 1.5 mg/kg, route intravenous. The following applies: plasma.
A short description of data set [7]: Cmax in rat at 13 mg/kg, po. It is filed as ADME, organism-based. Set-up: dose 13 mg/kg, route oral. The following applies: in vivo.
Data set [8] can be described thus: Tmax in rat at 13 mg/kg, po. In kind it is ADME, organism-based. Set-up: dose 13 mg/kg, route oral. The following applies: in vivo.
Data set [9] can be described thus: Half life in rat at 13 mg/kg, po. Set-up: dose 13 mg/kg, route oral. The conditions noted are these: in vivo. In kind it is ADME, organism-based.
Data set [10] is described as follows: Clearance in rat at 13 mg/kg, po. It is filed as ADME, organism-based. Also on record: dose 13 mg/kg, route oral. The conditions noted are these: in vivo.
The nature of data set [11]: AUC(0 to 24 hrs) in rat at 13 mg/kg, po. In kind it is ADME, organism-based. Also on record: time < 24 hr, dose 13 mg/kg, route oral. The following applies: plasma.
Data set [12] in a line: Oral bioavailability in rat at 13 mg/kg. The following applies: in vivo. It is filed as ADME, organism-based.
Data set [13] can be described thus: Stability of compound in Sorensens buffer at pH 7.4. It is filed as physicochemical.
For data set [14], the system named is Rattus norvegicus. The data set can be described thus: Cmax in rat assessed as N-Geranyl-N0-(2-adamantyl)ethane-1,2-diamine level at 13 mg/kg, po. In kind it is ADME, organism-based. Set-up: dose 13 mg/kg, route oral. The conditions noted are these: in vivo.
For data set [15], the system named is Rattus norvegicus. In words: Tmax in rat assessed as N-Geranyl-N0-(2-adamantyl)ethane-1,2-diamine level at 13 mg/kg, po. The following applies: in vivo. In kind it is ADME, organism-based. Set-up: dose 13 mg/kg, route oral.
Data set [16] has as its system Rattus norvegicus. The data set can be described thus: Half life in rat assessed as N-Geranyl-N0-(2-adamantyl)ethane-1,2-diamine level at 13 mg/kg, po. In kind it is ADME, organism-based. The following applies: in vivo. Set-up: dose 13 mg/kg, route oral.
Data set [17] deals with Rattus norvegicus. In words: Clearance in rat assessed as N-Geranyl-N0-(2-adamantyl)ethane-1,2-diamine level at 13 mg/kg, po. It is filed as ADME, organism-based. Also on record: dose 13 mg/kg, route oral. The following applies: in vivo.
In data set [18] the test system is Rattus norvegicus. The data set can be described thus: AUC(0 to 24 hrs) in rat assessed as N-Geranyl-N0-(2-adamantyl)ethane-1,2-diamine level at 13 mg/kg, po. In kind it is ADME, organism-based, Plasma. The following applies: in vivo. Set-up: time < 24 hr, dose 13 mg/kg, route oral.
Data set [19] has as its system Rattus norvegicus. The data set can be described thus: Oral bioavailability in rat assessed as N-Geranyl-N0-(2-adamantyl)ethane-1,2-diamine level at 13 mg/kg. In kind it is ADME, organism-based. The conditions noted are these: in vivo.
The subject of data set [20] is Lung. The data set can be described thus: Drug uptake in rat lung assessed as N-Geranyl-N0-(2-adamantyl)ethane-1,2-diamine level at 13 mg/kg, po after 4 hrs. It is filed as ADME, organism-based. The conditions noted are these: in vivo. Also on record: dose 13 mg/kg, route oral.
Data set [21] concerns Lung. In words: Drug uptake in rat lung assessed as N-Geranyl-N0-(2-adamantyl)ethane-1,2-diamine level at 13 mg/kg, po after 10 hrs. Also on record: dose 13 mg/kg, route oral. The conditions noted are these: in vivo. In kind it is ADME, organism-based.
Data set [22] can be described thus: Ratio of drug level in rat lung to plasma assessed as N-Geranyl-N0-(2-adamantyl)ethane-1,2-diamine level at 13 mg/kg, po after 4 hrs. It is filed as ADME, organism-based. Set-up: dose 13 mg/kg, route oral. The following applies: other tissue.

What is called bioavailability is dose-corrected exposure relative to a reference, in per cent. High values mean much systemic uptake, low ones little systemic uptake. One may read the Cmax as the highest concentration seen after dosing. A word on the half-life: it is how long it takes for the measured level to halve. A low value points to rapid decline. Broadly, the clearance is the volume of plasma or blood freed of the substance per unit of time. Low values mean a low capacity for elimination, high ones a high capacity for elimination. As usually defined, the AUC(0-t) is the area under the concentration-time curve up to a stated or last time point. One may read the Tmax as the time from dosing to the highest level. The CL/F is the apparent clearance, not corrected for the fraction that reaches the circulation. As to `CC(C)=CCC/C(C)=C/CNCCNC1C2CC3CC(C2)CC1C3` (centres undefined) [SQ109], the bioavailability in data set [1] worked out at 12%; in data set [2], 3.8%; in data set [12], 21.9%. Moreover, the peak concentration (Cmax) worked out at 889 ng/mL in data set [3] and 499 ng/mL in [7]. In addition, the values for the half-life in data set [4] and in [9] were 5.06 h and 3.71 h, respectively. Moreover, the clearance in [5] is 17.5 mL/min/kg. For the same molecule, the AUC(0-t) at 24 h was determined as 1230 ng·h/mL in data set [6] and 2330 ng·h/mL in data set [11]. Also, the time of peak concentration (Tmax) in [8] was 0.75 h. The molecule also had an apparent clearance (CL/F) in data set [10] of 82.3 mL/min/kg.
With `CC(C)=CCC/C(C)=C/CN(CCNC1C2CC3CC(C2)CC1C3)C(=O)OC(C)OC(=O)C(C)C.O=C(O)/C=C\C(=O)O` (centres undefined), the Stability entry in [13] was “Unstable”.
What is called AUC is concentration integrated over time. `CC(C)=CCC/C(C)=C/CN(CCNC1C2CC3CC(C2)CC1C3)C(=O)OCOC(=O)C(C)C.O=C(O)/C=C\C(=O)O` (centres undefined): in [14], the Cmax is 1309.3 ng/mL. In addition, the Tmax in [15] was determined as 1 h. Also, the t1/2 in data set [16] was 4.58 h. Further, the CL in data set [17] stood at 41.5 mL/min/kg. Moreover, the AUC in [18] was 5441.2 ng·h/mL. Also, the F in data set [19] is on record as 91.4%. Also, the figures for the Drug uptake in data set [20] and in data set [21] were 35.08 µg/g and 29.03 µg/g, respectively. Further, the “fold change (FC)” value in data set [22] was 76 and 60.
Consider `CC(C)=CCC/C(C)=C/CN(CCNC1C2CC3CC(C2)CC1C3)C(=O)OCOC(=O)C(C)(C)C.O=C(O)/C=C\C(=O)O` (centres undefined), for which the maximum concentration (Cmax) in data set [14] was determined as 585.6 ng/mL. In addition, the time to peak (Tmax) in data set [15] is 1.4 h. Further, in data set [16], the t1/2 was 5.6 h. Also, the CL in data set [17] is 50 mL/min/kg. Besides, in [18], the AUC was determined as 4224.8 ng·h/mL. For the same molecule, the F in data set [19] was 72.6%.
`CC(C)=CCC/C(C)=C/CN(CCNC1C2CC3CC(C2)CC1C3)C(=O)OC(C)OC(=O)C(C)(C)C.O=C(O)/C=C\C(=O)O` (centres undefined): the Stability result in data set [13] is recorded as “Unstable”.
